Consider 22 compounds from patent US9598387B2 (Southern Research Institute, priority 2012, dated 2017).

Assay [1] addresses human D3 dopamine receptor (Homo sapiens (Human), UniProt P35462). Put plainly: Radioligand binding (125I-IABN competition), D3. As to conditions: for Ki: 125I-IABN competition, HEK cell membranes expressing human D3; for D2/D3 (D3 selectivity ratio, D2 Ki/D3 Ki): calculated D2 Ki/D3 Ki. As to the method:
(§1) The affinities of the target compounds were determined using radioligand binding experiments. […] Competition curves were modeled for a single site. Data from competition dose-response curves were analyzed using Tablecurve program (Jandel). IC50 values were converted to equilibrium dissociation constants (Ki values) using the Cheng and Prusoff correction.

For assay [2], the target named is human D2-long dopamine receptor (Homo sapiens (Human), UniProt P14416). Put plainly: Radioligand binding (125I-IABN competition), D2. As to conditions: HEK cell membranes expressing human D2-long. As to the method: as §1
human D2-long dopamine receptor, sequence (P14416 whole entry): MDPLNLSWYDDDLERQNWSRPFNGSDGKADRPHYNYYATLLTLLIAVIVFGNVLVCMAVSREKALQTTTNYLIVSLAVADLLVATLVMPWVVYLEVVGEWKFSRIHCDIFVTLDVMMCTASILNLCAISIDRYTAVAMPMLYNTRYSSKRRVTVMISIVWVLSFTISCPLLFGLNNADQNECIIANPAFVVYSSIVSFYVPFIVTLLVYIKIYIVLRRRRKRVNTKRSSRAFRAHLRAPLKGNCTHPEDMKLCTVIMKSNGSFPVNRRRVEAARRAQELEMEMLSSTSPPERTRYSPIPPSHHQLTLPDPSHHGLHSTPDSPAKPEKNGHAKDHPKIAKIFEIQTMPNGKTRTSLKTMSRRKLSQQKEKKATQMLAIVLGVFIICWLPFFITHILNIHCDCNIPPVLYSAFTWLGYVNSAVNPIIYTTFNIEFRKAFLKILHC

human D3 dopamine receptor, sequence (P35462 whole entry): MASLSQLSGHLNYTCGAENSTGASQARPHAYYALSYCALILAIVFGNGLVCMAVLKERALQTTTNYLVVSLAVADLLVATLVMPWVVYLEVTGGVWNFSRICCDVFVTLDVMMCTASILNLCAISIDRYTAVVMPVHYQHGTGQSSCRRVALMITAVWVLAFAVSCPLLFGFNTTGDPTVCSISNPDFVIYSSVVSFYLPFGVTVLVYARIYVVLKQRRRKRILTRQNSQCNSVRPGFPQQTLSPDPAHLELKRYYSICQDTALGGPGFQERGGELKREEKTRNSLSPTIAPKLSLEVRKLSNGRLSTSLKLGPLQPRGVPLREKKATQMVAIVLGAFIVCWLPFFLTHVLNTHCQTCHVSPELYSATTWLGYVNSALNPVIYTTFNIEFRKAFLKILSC

The term Ki denotes the dissociation constant of the complex between target and ligand, obtained from inhibition or displacement. As for `CN1CCN(C(=O)NCCCCN2CCN(c3cc(C(F)(F)F)nc(C(C)(C)C)n3)CC2)CC1` [Compound 64, N-(4-(4-(2-(tert-Butyl)-6-(trifluoromethyl)pyrimidin-4-yl)piperazin-1-yl)butyl)-4-methylpiperazine-1-carboxamide], the results for the Ki in assay [1] and in assay [2] were 9.8 ± 2 nM and 167 ± 25.5 nM, respectively. Further, the “D2/D3 (D3 selectivity ratio, D2 Ki/D3 Ki)” value in assay [1] was 17.

Turning to `CC(C)(C)c1nc(N2CCN(CCCCNC(=O)N3CCN(C4CC4)CC3Cc3ccccc3)CC2)cc(C(F)(F)F)n1` (stereo not drawn) [Compound 67, 2-Benzyl-N-(4-(4-(2-(tert-butyl)-6-(trifluoromethyl)pyrimidin-4-yl)piperazin-1-yl)butyl)-4-cyclopropylpiperazine-1-carboxamide], in assay [1], the inhibition constant (Ki) stood at 73.8 ± 17.5 nM and the “D2/D3 (D3 selectivity ratio, D2 Ki/D3 Ki)” value was 8. In assay [2], the affinity corresponds to a Ki of 626 ± 143 nM.

Regarding `CC(C)(C)c1nc(N2CCN(CCCCNC(=O)N3CCN(c4ccccc4C#N)CC3)CC2)cc(C(F)(F)F)n1` [Compound 25, N-(4-(4-(2-(tert-Butyl)-6-(trifluoromethyl)pyrimidin-4-yl)piperazin-1-yl)butyl)-4-(2-cyanophenyl)piperazine-1-carboxamide], the inhibitory constant (Ki) in assay [1] was found to be 16.6 ± 2.2 nM; in assay [2] it was 385 ± 58.5 nM. Also, in assay [1], the “D2/D3 (D3 selectivity ratio, D2 Ki/D3 Ki)” value is recorded as 23.

Turning to `O=C(NCCCCN1CCN(c2cccc(C(F)(F)F)c2)CC1)N1CCN(c2ccccc2)CC1` [Compound 2, 4-Phenyl-N-(4-(4-(3-(trifluoromethyl)phenyl)piperazin-1-yl)butyl)piperazine-1-carboxamide], the Ki in assay [1] came out at 14.2 ± 2.9 nM; in assay [2] it was 303 ± 10.4 nM. Also, the “D2/D3 (D3 selectivity ratio, D2 Ki/D3 Ki)” value in assay [1] was 21.

As for `CC(C)(C)c1nc(N2CCN(CCCCNC(=O)N3CCc4[nH]c5ccc(C(F)(F)F)cc5c4C3)CC2)cc(C(F)(F)F)n1` [Compound 93, N-(4-(4-(2-(tert-Butyl)-6-(trifluoromethyl)pyrimidin-4-yl)piperazin-1-yl)butyl)-8-(trifluoromethyl)-3,4-dihydro-1H-pyrido[4,3-b]indole-2(5H)-carboxamide], the figures for the Ki in assay [1] and in assay [2] were 84.8 ± 21.3 nM and 560 ± 53 nM, respectively. In addition, in assay [1], the “D2/D3 (D3 selectivity ratio, D2 Ki/D3 Ki)” value is recorded as 7.

With `O=C(NCCCCN1CCN(c2ccnc3cc(C(F)(F)F)ccc23)CC1)N1CCN(c2ccccc2)CC1` [Compound 83, 4-Phenyl-N-(4-(4-(7-(trifluoromethyl)quinolin-4-yl)piperazin-1-yl)butyl)piperazine-1-carboxamide], in assay [1], the Ki is 112 ± 19.1 nM and the “D2/D3 (D3 selectivity ratio, D2 Ki/D3 Ki)” value was 14. The inhibitory constant (Ki) in assay [2] is 1550 ± 349 nM.

`CC(C)(C)c1nc(N2CCN(CCCCNC(=O)N3CCC(c4ccc(Cl)cc4)CC3)CC2)cc(C(F)(F)F)n1` [Compound 16, N-(4-(4-(2-(tert-Butyl)-6-(trifluoromethyl)pyrimidin-4-yl)piperazin-1-yl)butyl)-4-(4-chlorophenyl)piperidine-1-carboxamide]: the Ki in assay [1] was determined as 21.2 ± 1.4 nM; in assay [2], 894 ± 200 nM. Further, the “D2/D3 (D3 selectivity ratio, D2 Ki/D3 Ki)” value in assay [1] is 42.

For `COc1ccccc1N1CCN(C(=O)NCCCCN2CCN(c3cc(C(F)(F)F)nc(C(C)(C)C)n3)CC2)CC1` [Compound 19, N-(4-(4-(2-(tert-Butyl)-6-(trifluoromethyl)pyrimidin-4-yl)piperazin-1-yl)butyl)-4-(2-methoxyphenyl)piperazine-1-carboxamide], the Ki amounted to 25.2 ± 5.5 nM in assay [1] and 861 ± 137 nM in assay [2]. Besides, the “D2/D3 (D3 selectivity ratio, D2 Ki/D3 Ki)” value in assay [1] is reported as 34.

Turning to `Cc1cc(N2CCN(CCCCNC(=O)N3CCN(S(=O)(=O)c4ccccc4)CC3)CC2)nc(C(C)(C)C)n1` [Compound 46, N-(4-(4-(2-(tert-Butyl)-6-methylpyrimidin-4-yl)piperazin-1-yl)butyl)-4-(phenylsulfonyl)piperazine-1-carboxamide], the inhibition constant Ki in assay [1] turned out to be 31.9 ± 7.2 nM; in assay [2], 906 ± 169 nM. Besides, in assay [1], the “D2/D3 (D3 selectivity ratio, D2 Ki/D3 Ki)” value is given as 28.

Turning to `CC(C)(C)c1nc(C2CC2)cc(N2CCN(CCCCNC(=O)N3CCN(c4ccccc4)CC3)CC2)n1` [Compound 9, N-(4-(4-(2-(tert-Butyl)-6-cyclopropylpyrimidin-4-yl)piperazin-1-yl)butyl)-4-phenylpiperazine-1-carboxamide], in assay [1], the Ki is 15.1 ± 2.8 nM and the “D2/D3 (D3 selectivity ratio, D2 Ki/D3 Ki)” value was 34. Besides, affinity in assay [2] was put at a Ki of 515 ± 59.6 nM.

With `CC(C)(C)c1nc(N2CCN(CCCCNC(=O)N3CCc4[nH]c5ccccc5c4C3)CC2)cc(C(F)(F)F)n1` [Compound 89, N-(4-(4-(2-(tert-Butyl)-6-(trifluoromethyl)pyrimidin-4-yl)piperazin-1-yl)butyl)-3,4-dihydro-1H-pyrido[4,3-b]indole-2(5H)-carboxamide], in assay [1], the Ki came out at 110 ± 21.6 nM and the “D2/D3 (D3 selectivity ratio, D2 Ki/D3 Ki)” value is given as 11. This compound also came in with an inhibitory constant (Ki) in assay [2] of 1180 ± 180 nM.

In the case of `CC(C)(C)c1nc(N2CCN(CCCCNC(=O)N3CCN(c4cccc(-c5ccccc5)c4)CC3)CC2)cc(C(F)(F)F)n1` [Compound 44, 4-([1,1′-Biphenyl]-3-yl)-N-(4-(4-(2-(tert-butyl)-6-(trifluoromethyl)pyrimidin-4-yl)piperazin-1-yl)butyl)piperazine-1-carboxamide], the Ki in assay [1] worked out at 49.3 ± 11.2 nM; in assay [2], 1110 ± 104 nM. In assay [1], the “D2/D3 (D3 selectivity ratio, D2 Ki/D3 Ki)” value is listed as 22.

Consider `CC(C)(C)c1cc(N2CCN(CCCCNC(=O)N3CCc4[nH]c5ccccc5c4C3)CC2)nc(C(C)(C)C)n1` [Compound 56, N-(4-(4-(2,6-Di-tert-butylpyrimidin-4-yl)piperazin-1-yl)butyl)-3,4-dihydro-1H-pyrido[4,3-b]indole-2(5H)-carboxamide], for which the Ki in assay [1] was 9.5 ± 1.7 nM; in assay [2], 308 ± 29.9 nM. For the same compound, the “D2/D3 (D3 selectivity ratio, D2 Ki/D3 Ki)” value in assay [1] is given as 33.

Turning to `CC(C)(C)c1nc(N2CCN(CCCCNC(=O)N3CCN(c4ccc(C(F)(F)F)cc4)CC3)CC2)cc(C(F)(F)F)n1` [Compound 28, N-(4-(4-(2-(tert-Butyl)-6-(trifluoromethyl)pyrimidin-4-yl)piperazin-1-yl)butyl)-4-(4-(trifluoromethyl)phenyl)piperazine-1-carboxamide], in assay [1], the inhibition constant (Ki) worked out at 19.4 ± 4.8 nM and the “D2/D3 (D3 selectivity ratio, D2 Ki/D3 Ki)” value is listed as 22. The compound further displayed an inhibition constant Ki in assay [2] of 428 ± 102 nM.

Take `CC(C)(C)c1nc(N2CCN(CCCCNC(=O)N3CCN(c4ccc(C#N)cc4)CC3)CC2)cc(C(F)(F)F)n1` [Compound 59, N-(4-(4-(2-(tert-Butyl)-6-(trifluoromethyl)pyrimidin-4-yl)piperazin-1-yl)butyl)-4-(4-cyanophenyl)piperazine-1-carboxamide]: the values for the inhibition constant (Ki) in assay [1] and in assay [2] were 19.4 ± 4.1 nM and 342 ± 22 nM, respectively. The “D2/D3 (D3 selectivity ratio, D2 Ki/D3 Ki)” value in assay [1] is 18.

In the case of `CC(C)(C)c1nc(N2CCN(CCCCNC(=O)N3CCN(S(=O)(=O)c4ccccc4)CC3)CC2)cc(C(F)(F)F)n1` [Compound 77, N-(4-(4-(2-(tert-Butyl)-6-(trifluoromethyl)pyrimidin-4-yl)piperazin-1-yl)butyl)-4-(phenylsulfonyl)piperazine-1-carboxamide], the Ki in assay [1] was 138 ± 28.8 nM; in assay [2], 981 ± 73.9 nM. Also, the “D2/D3 (D3 selectivity ratio, D2 Ki/D3 Ki)” value in assay [1] was 7.

Take `CC(C)N1CCN(C(=O)NCCCCN2CCN(c3cc(C(F)(F)F)nc(C(C)(C)C)n3)CC2)CC1` [Compound 66, N-(4-(4-(2-(tert-Butyl)-6-(trifluoromethyl)pyrimidin-4-yl)piperazin-1-yl)butyl)-4-isopropylpiperazine-1-carboxamide]: in assay [1], affinity was put at a Ki of 9.6 ± 2.2 nM and the “D2/D3 (D3 selectivity ratio, D2 Ki/D3 Ki)” value is 13. This compound showed a Ki in assay [2] of 125 ± 25.3 nM.

With `Cc1ccc(N2CCN(C(=O)NCCCCN3CCN(c4cc(C(F)(F)F)nc(C(C)(C)C)n4)CC3)CC2)cc1` [Compound 23, N-(4-(4-(2-(tert-Butyl)-6-(trifluoromethyl)pyrimidin-4-yl)piperazin-1-yl)butyl)-4-(p-tolyl)piperazine-1-carboxamide], in assay [1], the affinity corresponds to a Ki of 22.8 ± 4.2 nM and the “D2/D3 (D3 selectivity ratio, D2 Ki/D3 Ki)” value was 35. The same compound displayed an inhibition constant (Ki) in assay [2] of 802 ± 179 nM.

For `CC(C)(C)c1cc(N2CCN(CCCCNC(=O)N3CCc4[nH]c5ccccc5c4C3)CC2)cc(C(C)(C)C)c1` [Compound 97, N-(4-(4-(3,5-Di-tert-butylphenyl)piperazin-1-yl)butyl)-3,4-dihydro-1H-pyrido[4,3-b]indole-2(5H)-carboxamide], in assay [1], the affinity, expressed as Ki, was 245 ± 46.4 nM and the “D2/D3 (D3 selectivity ratio, D2 Ki/D3 Ki)” value was 10. In addition, in assay [2], the inhibition constant (Ki) is 2440 ± 175 nM.

Turning to `CC(C)(C)c1nc(N2CCN(CCCCNC(=O)N3CCN(CC=Cc4ccccc4)CC3)CC2)cc(C(F)(F)F)n1` [Compound 74, N-(4-(4-(2-(tert-Butyl)-6-(trifluoromethyl)pyrimidin-4-yl)piperazin-1-yl)butyl)-4-cinnamylpiperazine-1-carboxamide], the results for the inhibition constant (Ki) in assay [1] and in assay [2] were 66.8 ± 16.3 nM and 585 ± 72.7 nM, respectively. For the same compound, the “D2/D3 (D3 selectivity ratio, D2 Ki/D3 Ki)” value in assay [1] was 9.

For the compound `CC(C)(C)c1cc(N2CCN(CCCCNC(=O)N3CCN(S(=O)(=O)c4ccccc4)CC3)CC2)nc(C(C)(C)C)n1` [Compound 78, N-(4-(4-(2,6-Di-tert-butylpyrimidin-4-yl)piperazin-1-yl)butyl)-4-(phenylsulfonyl)piperazine-1-carboxamide], the results for the inhibition constant (Ki) in assay [1] and in assay [2] were 29 ± 4.8 nM and 448 ± 75.9 nM, respectively. For the same compound, the “D2/D3 (D3 selectivity ratio, D2 Ki/D3 Ki)” value in assay [1] was 15.

For the compound `CC(C)(C)c1nc(N2CCN(CCCCNC(=O)N3CCN(c4cnccn4)CC3)CC2)cc(C(F)(F)F)n1` [Compound 33, N-(4-(4-(2-(tert-Butyl)-6-(trifluoromethyl)pyrimidin-4-yl)piperazin-1-yl)butyl)-4-(pyrazin-2-yl)piperazine-1-carboxamide], in assay [1], the affinity, expressed as Ki, was 8.6 ± 1.8 nM and the “D2/D3 (D3 selectivity ratio, D2 Ki/D3 Ki)” value is listed as 54. In assay [2], this compound showed an inhibition constant (Ki) of 463 ± 55.1 nM.
